# In patent US9902736B2, “1-oxo/acylation-14-acylated oridonin derivative, preparation method therefor and application thereof” (HANGZHOU BENSHENG PHARMACEUTICAL CO., LTD., priority 2012, dated 2018):
# How the values were obtained:
# K562/ADR = assay: Leukemia cell growth inhibition, MTT, 72 h; format: cell-based; details: Homo sapiens
# Description: (§1) Leukemia cell lines: leukemia cell lines: K562/adr (drug-resistant, chronic myeloid leukemia, CML), NB4 (acute promyelocytic leukemia, AML), Kasumi-1 (acute myeloid leukemia M2 type, AML-M2), Jurkat (acute lymphoblastic leukemia, ALL), all of which were donated by Cancer Research Institute of Zhejiang University, China; and H9 (acute lymphoblastic leukemia, ALL), which was purchased from China Center for Type Culture Collection.
# (§2) 6000 well-growing leukemia cells were obtained and inoculated into wells of a 96-well cell culture plate. […] On the next day, the 1-oxo/acylated-14-acylated oridonin derivatives of different concentrations were added and mixed uniformly. The plate was placed in a carbon dioxide cell incubator (5% CO2) at 37° C. and was incubated for 72 hours. Then the viable cell concentration was determined by MTT method.
# Kasumi-1 = assay: Leukemia cell growth inhibition, MTT, 72 h; format: cell-based; details: Homo sapiens
# Description: as §1, §2
# H9 = assay: Leukemia cell growth inhibition, MTT, 72 h; format: cell-based, human; details: Homo sapiens, H9; 72 h, MTT
# Description: as §1, §2
# Jurkat = assay: Leukemia cell growth inhibition, MTT, 72 h; format: cell-based, human; details: Homo sapiens, Jurkat; 72 h, MTT
# Description: as §1, §2
# NB4 = assay: Leukemia cell growth inhibition, MTT, 72 h; format: cell-based, human; details: Homo sapiens, NB-4; 72 h, MTT
# Description: as §1, §2
# RPMI 8226 = assay: Multiple myeloma cell growth inhibition, MTT, 72 h; format: cell-based; details: Homo sapiens
# Description: Multiple myeloma cell lines: RPMI8226 (multiple myeloma), purchased from Fuxiang Bio-tech Co. Ltd., Shanghai, China.
# 6000 well-growing cells were obtained and inoculated into wells of a 96-well cell culture plate. […] On the next day, the 1-oxo/acylated-14-acylated oridonin derivatives of different concentrations were added and mixed uniformly. The plate was placed in a carbon dioxide cell incubator (5% CO2) at 37° C. and incubated for 72 hours. Then the viable cell concentration was determined by MTT method.
# CNE = assay: Solid tumor cell growth inhibition, MTT, 72 h; format: cell-based, human; details: Homo sapiens, CNE; 72 h, MTT
# Description: (§3) 6000 well-growing human solid tumor cells were obtained and inoculated into wells of a 96-well cell culture plate. The culture medium was DMEM High Glucose cell culture medium containing 10% fetal bovine serum. The plate was placed in a carbon dioxide cell incubator (5% CO2) at 37° C. and incubated for 24 hours. After added with 1-oxo/acylated-14-acylated oridonin derivatives of different concentration and mixed uniformly, the plate was placed in a carbon dioxide cell incubator (5% CO2) at 37° C. and incubated for 72 hours. Then the viable cell concentration was determined by MTT method.
# Hela = assay: Solid tumor cell growth inhibition, MTT, 72 h; format: cell-based, human; details: Homo sapiens, HeLa; 72 h, MTT
# Description: as §3
# Hep-2 = assay: Solid tumor cell growth inhibition, MTT, 72 h; format: cell-based, human; details: Homo sapiens, HEp-2; 72 h, MTT
# Description: as §3
# MGC-803 = assay: Solid tumor cell growth inhibition, MTT, 72 h; format: cell-based, human; details: Homo sapiens, MGC-803; 72 h, MTT
# Description: as §3
# A549 = assay: Solid tumor cell growth inhibition, MTT, 72 h; format: cell-based; details: Homo sapiens
# Description: as §3
# Becap-37 = assay: Solid tumor cell growth inhibition, MTT, 72 h; format: cell-based; details: Homo sapiens
# Description: as §3
# CaEs-17 = assay: Solid tumor cell growth inhibition, MTT, 72 h; format: cell-based; details: Homo sapiens, CaEs17
# Description: as §3
# Hep G2 = assay: Solid tumor cell growth inhibition, MTT, 72 h; format: cell-based; details: Homo sapiens, HepG2
# Description: as §3
# MG-63 = assay: Solid tumor cell growth inhibition, MTT, 72 h; format: cell-based; details: Homo sapiens
# Description: as §3
# PANC-1 = assay: Solid tumor cell growth inhibition, MTT, 72 h; format: cell-based; details: Homo sapiens
# Description: as §3
# PC-3 = assay: Solid tumor cell growth inhibition, MTT, 72 h; format: cell-based; details: Homo sapiens
# Description: as §3
# RKO = assay: Solid tumor cell growth inhibition, MTT, 72 h; format: cell-based; details: Homo sapiens
# Description: as §3
# SK-OV-3 = assay: Solid tumor cell growth inhibition, MTT, 72 h; format: cell-based; details: Homo sapiens, SK-OV-3, 72 h, MTT; for IC50: read-out: IC50 SK-OV-3; for IC90: read-out: IC90 SK-OV-3
# Description: as §3
# U87-MG = assay: Solid tumor cell growth inhibition, MTT, 72 h; format: cell-based; details: Homo sapiens, U-87 MG
# Description: as §3
Structure (SMILES),IC50 (K562/ADR) [µg/mL],IC90 (K562/ADR) [µg/mL],IC50 (Kasumi-1) [µg/mL],IC90 (Kasumi-1) [µg/mL],IC50 (H9) [µg/mL],IC90 (H9) [µg/mL],IC50 (Jurkat) [µg/mL],IC90 (Jurkat) [µg/mL],IC50 (NB4) [µg/mL],IC90 (NB4) [µg/mL],IC50 (RPMI 8226) [µg/mL],IC90 (RPMI 8226) [µg/mL],IC50 (CNE) [µg/mL],IC90 (CNE) [µg/mL],IC50 (Hela) [µg/mL],IC90 (Hela) [µg/mL],IC50 (Hep-2) [µg/mL],IC90 (Hep-2) [µg/mL],IC50 (MGC-803) [µg/mL],IC90 (MGC-803) [µg/mL],other results
C=C1C(=O)[C@]23[C@H](OC(=O)c4cccs4)[C@H]1CC[C@H]2[C@@]12CO[C@@]3(O)[C@@H](O)[C@@H]1C(C)(C)CCC2=O [BS-OR-007],0.47,1.86,0.71,1.76,0.41,0.92,0.71,4.45,0.08,0.47,0.37,2.59,1.33,5.16,1.64,4.92,1.76,9.2,0.95,9.79,IC50 (A549): 2.13 µg/mL; IC90 (A549): 5.34 µg/mL; IC50 (Becap-37): 1.02 µg/mL; IC90 (Becap-37): 3.8 µg/mL; IC50 (CaEs-17): 0.93 µg/mL; IC90 (CaEs-17): 5.32 µg/mL; IC50 (Hep G2): 1.54 µg/mL; IC90 (Hep G2): 10.8 µg/mL; IC50 (MG-63): 0.42 µg/mL; IC90 (MG-63): 0.96 µg/mL; IC50 (PANC-1): 1.63 µg/mL; IC90 (PANC-1): 8.55 µg/mL; IC50 (PC-3): 1.69 µg/mL; IC90 (PC-3): 4.6 µg/mL; IC50 (RKO): 0.43 µg/mL; IC90 (RKO): 0.95 µg/mL; IC50 (SK-OV-3): 1.69 µg/mL; IC90 (SK-OV-3): 4.6 µg/mL; IC50 (U87-MG): 0.78 µg/mL; IC90 (U87-MG): 3.21 µg/mL
C=C1C(=O)[C@]23[C@H](OC(=O)c4cccc(C)c4)[C@H]1CC[C@H]2[C@@]12CO[C@@]3(O)[C@@H](O)[C@@H]1C(C)(C)CCC2=O [BS-OR-008],0.52,2.33,0.73,1.84,0.76,1.79,0.73,2.6,0.29,0.92,0.37,1.72,2.16,10.5,1.45,3.9,3.11,13.2,1.39,3.89,IC50 (A549): 2.75 µg/mL; IC90 (A549): 6.86 µg/mL; IC50 (Becap-37): 1.08 µg/mL; IC90 (Becap-37): 3.35 µg/mL; IC50 (CaEs-17): 1.22 µg/mL; IC90 (CaEs-17): 4.75 µg/mL; IC50 (Hep G2): 1.74 µg/mL; IC90 (Hep G2): 12.6 µg/mL; IC50 (MG-63): 0.42 µg/mL; IC90 (MG-63): 0.98 µg/mL; IC50 (PANC-1): 1.73 µg/mL; IC90 (PANC-1): 11.4 µg/mL; IC50 (PC-3): 1.59 µg/mL; IC90 (PC-3): 3.67 µg/mL; IC50 (RKO): 0.47 µg/mL; IC90 (RKO): 0.94 µg/mL; IC50 (SK-OV-3): 1.59 µg/mL; IC90 (SK-OV-3): 3.67 µg/mL; IC50 (U87-MG): 0.86 µg/mL; IC90 (U87-MG): 2.4 µg/mL
